Source: US20090233930A9, “Novel 2-Amino-Imidazole-4-One Compounds and Their Use in the Manufacture of a Medicament to Be Used in the Treatment of Cognitive Impairment, Alzheimer's Disease, Neurodegeneration and Dementia” (ASTRAZENECA AB, priority 2005, published 2009)
Where a name gives a salt, the structure may show the parent alone.

Target: T1, human β-Secretase (Homo sapiens, UniProt P56817)
T1 construct: The soluble part of the human β-Secretase (AA 1-AA 460) was cloned; made in house
Assay: TR-FRET assay
Format: biochemical
Settings: sBACE truncated form, substrate (Europium)CEVNLDAEFK(Qsy7) 100 nM, pH 4.5
Experimental: The enzyme used in the IGEN Cleavage-, Fluorescent-, TR-FRET- and the BiaCore assay is described as follows:
The soluble part of the human β-Secretase (AA 1-AA 460) was cloned into the ASP2-Fc10-1-IRES-GFP-neoK mammalian expression vector. The gene was fused to the Fc domain of IgG1 (affinity tag) and stably cloned into HEK 293 cells. Purified sBACE-Fc is stored in Tris buffer, pH 9.2 and has a purity of 95%.
Dilute the enzyme (truncated form) to 6 μg/mL (stock 1.3 mg/mL) and the substrate (Europium)CEVNLDAEFK(Qsy7) to 200 nM (stock 60 μM) in reaction buffer (NaAcetate, chaps, triton x-100, EDTA pH4.5). The Biomek FX is used for all liquid handling and the enzyme and substrate solutions are kept on ice until they are placed in Biomek FX. Enzyme (9 μl) is added to the plate then 1 μl of compound in dimethylsulphoxide is added, mixed and pre-incubated for 10 minutes. Substrate (10 μl) is then added, mixed and the reaction proceeds in the dark for 15 minutes at room temperature. The reaction is stopped with the addition of Stop solution (7 μl, NaAcetate pH 9). The fluorescence of the product is measured on a Victor II plate reader with an excitation wavelength of 340 nm and an emission wavelength of 615 nm. The assay is done in a Costar 384 well round bottom, low volume, non-binding surface (Corning #3676). […]

T1 sequence (P56817 22-460): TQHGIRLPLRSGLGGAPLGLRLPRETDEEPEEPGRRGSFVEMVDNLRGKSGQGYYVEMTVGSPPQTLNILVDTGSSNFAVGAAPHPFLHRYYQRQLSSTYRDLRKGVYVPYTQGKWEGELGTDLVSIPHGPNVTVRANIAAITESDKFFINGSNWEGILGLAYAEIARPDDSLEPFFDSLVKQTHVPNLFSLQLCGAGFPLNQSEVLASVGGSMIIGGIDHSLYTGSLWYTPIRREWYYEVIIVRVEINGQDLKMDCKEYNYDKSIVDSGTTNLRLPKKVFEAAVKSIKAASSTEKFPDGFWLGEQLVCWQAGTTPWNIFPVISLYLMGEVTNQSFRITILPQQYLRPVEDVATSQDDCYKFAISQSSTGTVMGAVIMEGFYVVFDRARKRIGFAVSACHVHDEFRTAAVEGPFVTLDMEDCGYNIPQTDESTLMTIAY

Row | IC50 [nM] | Structure (SMILES)
1 | 743 | COc1ccc(OS(=O)(=O)C(F)(F)F)c(-c2cccc(C3(c4ccccc4)N=C(N)N(C)C3=O)c2)c1 (centres unmarked) [Example 26, 3′-(2-Amino-1-methyl-5-oxo-4-phenyl-4,5-dihydro-1H-imidazol-4-yl)-5-methoxybiphenyl-2-yl trifluoromethanesulfonate hydrochloride]
2 | 258 | COc1cccc(-c2cccc(C3(c4cccc(OS(=O)(=O)C(F)(F)F)c4)N=C(N)N(C)C3=O)c2)c1 (centres unmarked) [Example 45, 3-[2-Amino-4-(3′-methoxybiphenyl-3-yl)-1-methyl-5-oxo-4,5-dihydro-1H-imidazol-4-yl]phenyl trifluoromethanesulfonate hydrochloride]
